The values that follow come from patent publication US5516768A, “Uncompetitive inhibition of steroid and 5α-reductose” (priority 1990, dated 1996).

In one assay the test system is steroid 5-α-reductase. In words: kinetic mechanism of inhibition versus testosterone (competitive / uncompetitive). The class given is biochemical. The conditions noted are these: competitive = binds E-NADPH; uncompetitive = binds E-NADP+. An excerpt:
Dead-end inhibitors of bisubstrate enzymes which follow ordered kinetic mechanisms can associate to one or more existing enzyme species. With steroid 5-α-reductase, enzyme forms to which such a steroidal-inhibitor might bind would include free enzyme, E, and enzyme binary complexes with cofactor, E-NADPH and E-NADP^+.
The response of the velocity of enzyme catalysis with varying concentrations of testosterone in the presence of an inhibitor that binds to the E-NADPH complex can be described by equation 1; this model is denoted as competitive inhibition versus the variable substrate, in this case testosterone.
v=VM A/[Ka (1+I/Kis)+A] (1)
v=VM A/[Ka +A(1+K/Kii)] (2)
The results of these analyses are typically expressed in double reciprocal plots: 1/velocity versus 1/[testosterone].

In assay [1] the test system is involuted ventral prostate. As to conditions: Stoner, et al. (1987) Endocrinology 120:774; cited from earlier work.
For assay [2], the system named is involuted ventral prostate. The experiment in a line: testosterone induced regrowth of the involuted ventral prostate of castrated male rats. The class given is in vivo, rat. The conditions noted are these: castrated + testosterone implant, 10 days, N = 5 rats/group. The protocol:
Certain combinations of the invention were tested for their in vivo potency in inhibiting steroid 5-α-reductase activity.
(§1) When male rats are castrated and allowed to go untreated for 1 month, the ventral prostates involutes to approximately 10% of its original total cell number. If exogeneous testosterone is given to these castrated rats to restore the physiological serum level of testosterone, the involuted ventral prostate rapidly proliferates restoring its original cell content within 2-3 weeks. Using the ability to inhibit this testosterone induced regrowth of the rat ventral prostate, the efficacy and potency of twice daily oral administering of the "competitive" inhibitor and the "uncompetitive" inhibitor individually and in combination were compared.
(§2) To perform these experiments, a total of 50 male Sprague Dawley rats (From Harlan Sprague-Dawley, Inc.) of 250-300 gm starting weight were used. Forty-five of these animals were castrated and allowed to go untreated for 1 month to produce maximal ventral prostatic and seminal vesicle involution. After this 1 month period, 40 of the 45 castrated animals were implanted subcutaneously in the flank with a 2.5 cm long testosterone filled silastic capsule. The 50 animals were set up in 10 groups as follows:
(§3) The animals were administered the 5-α-reductase inhibiting compounds twice a day (BID) for 10 consecutive days. This test compound was dissolved in propylene glycol and diluted in normal saline. At the end of the treatment period blood was collected from the animals and then they were sacrificed, the ventral prostrates were excised and weighed, and DHT levels were measured by the following procedure.
Prostate tissue was excised, trimmed, weighed, minced and washed with phosphate buffer. The tissue then was homogenized in phosphate buffer and extracted by addition of ethyl acetate and mixing on an orbital mixer for forty-five minutes. The ethyl acetate was evaporated, the residue was reconstituted in ethanol, and was centrifuge filtered using […] filter paper. The components then were separated using reverse-phase HPLC collecting the DHT fraction. The fraction was reduced to dryness and reconstituted in standard commercial DHT assay buffer. DHT levels then were measured using standard techniques such as radioimmunoassay.

The test system of the next assay is seminal vesicle. The experiment in a line: testosterone induced regrowth of the involuted seminal vesicle of castrated male rats. In kind it is in vivo, rat. As to conditions: castrated + testosterone implant, 10 days, N = 5 rats/group.
Text: as §1, §2, §3

In the case of `CC(C)N(C(=O)[C@H]1CC[C@H]2[C@@H]3CC=C4C=C(C(=O)O)CC[C@]4(C)[C@H]3CC[C@]12C)C(C)C` [compound B, N,N-diisopropyl-androst-3,5-diene-17β-carboxamide-3-carboxylic acid], in the assay with steroid 5-α-reductase, the “mechanism of inhibition versus testosterone” value is reported as “uncompetitive inhibitor”.
Consider `CC(C)(C)NC(=O)[C@H]1CC[C@H]2[C@@H]3CC[C@H]4NC(=O)C=C[C@]4(C)[C@H]3CC[C@]12C` [compound A, N-t-butyl-5-α-androst-1-ene-4-aza-17β-carboxamide-3-one], for which the “mechanism of inhibition versus testosterone” value in the assay on steroid 5-α-reductase is on record as “competitive inhibitor”. The “plateau dose-response effect on prostate weight reported in other studies” value in assay [1] is on record as “plateau dose-response effect”. The “Ventral Prostate DNA (μg/gland)” value is on record as 289 ± 17 μg/gland in assay [2] (BID 12.5 mg/kg oral), 290 ± 25 μg/gland in assay [2] (BID 25 mg/kg oral) and 284 ± 19 μg/gland in assay [2] (BID 50 mg/kg oral). The “Ventral Prostate weight (mg/gland)” value came to 71 ± 11 mg/gland in assay [2] (BID 12.5 mg/kg oral), 55 ± 7 mg/gland in assay [2] (BID 25 mg/kg oral) and 62 ± 7 mg/gland in assay [2] (BID 50 mg/kg oral). Moreover, the “Seminal Vesicle DNA (μg/gland)” value in the assay with seminal vesicle (BID 12.5 mg/kg oral) is 692 ± 51 μg/gland; with seminal vesicle (BID 25 mg/kg oral) it was 708 ± 72 μg/gland; in the assay with seminal vesicle (BID 50 mg/kg oral) it was 698 ± 39 μg/gland. Further, the “Seminal Vesicle weight (mg/gland)” value in the assay on seminal vesicle (BID 12.5 mg/kg oral) is given as 118 ± 5 mg/gland; in the assay on seminal vesicle (BID 25 mg/kg oral), 108 ± 10 mg/gland; with seminal vesicle (BID 50 mg/kg oral), 108 ± 7 mg/gland.
`CC(C)(C)NC(=O)[C@H]1CC[C@H]2[C@@H]3CC=C4C=C(C(=O)O)CC[C@]4(C)[C@H]3CC[C@]12C` [compound C, N-t-butyl-androst-3,5-diene-17β-carboxamide-3-carboxylic acid]: in the assay on steroid 5-α-reductase, the “mechanism of inhibition versus testosterone” value is given as “uncompetitive inhibitor”. In addition, the results for the “Ventral Prostate DNA (μg/gland)” value in assay [2] (BID 12.5 mg/kg oral), in assay [2] (BID 25 mg/kg oral) and in assay [2] (BID 50 mg/kg oral) were 359 ± 36 μg/gland, 383 ± 29 μg/gland and 316 ± 52 μg/gland, respectively. Besides, the results for the “Ventral Prostate weight (mg/gland)” value in assay [2] (BID 12.5 mg/kg oral), in assay [2] (BID 25 mg/kg oral) and in assay [2] (BID 50 mg/kg oral) were 154 ± 22 mg/gland, 143 ± 17 mg/gland and 147 ± 15 mg/gland, respectively. Also, the “Seminal Vesicle DNA (μg/gland)” value in the assay on seminal vesicle (BID 12.5 mg/kg oral) was found to be 851 ± 47 μg/gland; in the assay with seminal vesicle (BID 25 mg/kg oral), 890 ± 58 μg/gland; with seminal vesicle (BID 50 mg/kg oral), 855 ± 63 μg/gland. Also, the “Seminal Vesicle weight (mg/gland)” value with seminal vesicle (BID 12.5 mg/kg oral) was found to be 158 ± 15 mg/gland; with seminal vesicle (BID 25 mg/kg oral) it was 170 ± 19 mg/gland; in the assay on seminal vesicle (BID 50 mg/kg oral) it was 159 ± 20 mg/gland.
